# Laboratory results as given in patent US20150352111A1, “Therapeutic Indications of Kinase Inhibitors” (Pulmokine, Inc., priority 2013, published 2015).
# “And” between values parts separate entries of the source, which are not always exact repeats. Identical values can stand only once. “Also recorded” adds a separate entry of the source. Like-named read-outs stand apart in the source and are kept apart here. Marks after values point to notes of the source that are not given here.
# Experiments:
# [1] = biological target: T1, PDGFR alpha receptor (Homo sapiens, UniProt P16234); experiment: Z-lyte in vitro kinase assay (Invitrogen Select Screen); assay type: biochemical; details: ATP Km
# T1 construct: purchased Invitrogen (Select Screen service)
# T1 sequence (P16234 24-1089): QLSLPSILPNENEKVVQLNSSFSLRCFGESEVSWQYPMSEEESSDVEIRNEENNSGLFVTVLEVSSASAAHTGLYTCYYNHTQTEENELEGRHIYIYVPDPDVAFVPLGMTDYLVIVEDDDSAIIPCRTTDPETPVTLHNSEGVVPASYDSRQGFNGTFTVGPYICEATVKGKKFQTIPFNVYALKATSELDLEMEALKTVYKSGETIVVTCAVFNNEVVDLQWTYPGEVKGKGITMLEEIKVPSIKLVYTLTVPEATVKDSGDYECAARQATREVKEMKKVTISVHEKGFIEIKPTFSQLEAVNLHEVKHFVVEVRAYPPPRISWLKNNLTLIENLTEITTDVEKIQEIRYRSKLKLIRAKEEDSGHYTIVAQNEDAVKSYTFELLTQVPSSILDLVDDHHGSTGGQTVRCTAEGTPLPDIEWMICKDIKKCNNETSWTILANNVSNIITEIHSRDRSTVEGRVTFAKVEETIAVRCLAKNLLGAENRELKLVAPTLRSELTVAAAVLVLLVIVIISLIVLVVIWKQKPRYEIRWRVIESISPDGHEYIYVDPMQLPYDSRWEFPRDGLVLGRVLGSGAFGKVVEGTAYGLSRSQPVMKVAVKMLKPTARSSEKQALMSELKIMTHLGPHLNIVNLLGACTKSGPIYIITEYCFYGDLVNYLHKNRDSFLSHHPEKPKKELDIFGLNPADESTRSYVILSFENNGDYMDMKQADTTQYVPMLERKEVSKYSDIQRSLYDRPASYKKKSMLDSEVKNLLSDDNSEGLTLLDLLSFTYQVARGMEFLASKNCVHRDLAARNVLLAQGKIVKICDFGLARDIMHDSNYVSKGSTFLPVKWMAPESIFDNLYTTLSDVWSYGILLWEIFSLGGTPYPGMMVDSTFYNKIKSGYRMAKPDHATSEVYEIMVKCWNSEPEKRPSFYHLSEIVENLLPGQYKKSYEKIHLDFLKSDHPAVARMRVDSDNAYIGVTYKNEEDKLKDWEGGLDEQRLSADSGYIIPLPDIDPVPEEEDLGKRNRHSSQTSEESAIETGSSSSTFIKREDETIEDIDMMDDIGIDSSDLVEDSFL
# [2] = biological target: PDGFR beta receptor (Homo sapiens, UniProt P09619); experiment: as above; assay type: biochemical; details: ATP Km
# PDGFR beta receptor, sequence (P09619 33-1106): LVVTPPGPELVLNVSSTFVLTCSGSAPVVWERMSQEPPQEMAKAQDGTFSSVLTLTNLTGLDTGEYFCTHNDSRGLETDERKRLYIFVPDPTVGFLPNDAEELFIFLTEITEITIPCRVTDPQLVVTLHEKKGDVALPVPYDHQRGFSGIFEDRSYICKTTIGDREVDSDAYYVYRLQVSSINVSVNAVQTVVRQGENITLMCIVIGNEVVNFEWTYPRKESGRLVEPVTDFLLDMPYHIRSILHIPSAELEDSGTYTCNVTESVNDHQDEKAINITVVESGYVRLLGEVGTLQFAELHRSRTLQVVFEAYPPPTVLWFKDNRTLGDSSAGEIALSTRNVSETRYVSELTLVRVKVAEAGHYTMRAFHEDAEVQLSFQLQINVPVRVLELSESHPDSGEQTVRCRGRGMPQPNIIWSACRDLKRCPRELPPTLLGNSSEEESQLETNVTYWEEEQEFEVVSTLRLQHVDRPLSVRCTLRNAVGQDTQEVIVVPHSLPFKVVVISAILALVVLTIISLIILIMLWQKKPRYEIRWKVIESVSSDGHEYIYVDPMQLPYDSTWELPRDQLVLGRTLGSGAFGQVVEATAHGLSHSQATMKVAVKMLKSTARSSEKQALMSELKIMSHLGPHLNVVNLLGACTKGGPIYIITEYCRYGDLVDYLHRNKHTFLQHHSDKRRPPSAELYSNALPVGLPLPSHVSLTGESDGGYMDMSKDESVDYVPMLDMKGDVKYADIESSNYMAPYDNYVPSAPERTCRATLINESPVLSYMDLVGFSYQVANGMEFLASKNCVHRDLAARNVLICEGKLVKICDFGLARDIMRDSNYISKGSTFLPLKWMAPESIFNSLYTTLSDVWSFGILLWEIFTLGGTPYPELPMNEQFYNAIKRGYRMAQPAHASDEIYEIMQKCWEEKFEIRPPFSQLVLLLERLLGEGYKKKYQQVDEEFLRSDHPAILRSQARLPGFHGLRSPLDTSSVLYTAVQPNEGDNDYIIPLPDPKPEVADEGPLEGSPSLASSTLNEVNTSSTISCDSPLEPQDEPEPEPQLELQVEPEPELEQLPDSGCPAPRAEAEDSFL
# Method: In Vitro Kinase Assay. A Z-lyte kinase assay was performed to determine the inhibition of PDGFRalpha and PDGFRbeta mediated phosphorylation by PK10453. Ten point titration curves were modeled to calculate the IC50 (Invitrogen Select Screen®).
# [3] = test system: Human pulmonary artery smooth muscle cells; experiment: PASMC proliferation assay (Cyquant NF); assay type: cell-based; details: PDGF BB 50 ng/ml, 24 hours, read-out: IC50, PDGF BB stimulated human PA SMC proliferation
# Method: PASMC Proliferation Assay.
# Human pulmonary artery smooth muscle cells were obtained from Cell Applications (San Diego, Calif.) and grown to 50% confluence in a 96 well format. The cells were switched to serum free media 24 hours prior to stimulation with PDGF BB 50 ng/ml and varying concentrations of PK10453. After 24 hours of treatment, a Cyquant NF Cell proliferation assay was performed (Invitrogen®), and the fluorescent signal was measured with a Cytofluor Plate reader. Data is based on an avg. of 8 replicates at each conc.
# [4] = Fluorescent imaging of lung distribution of inhaled drug with IR780 tracer; assay type: in vivo, rat; details: inhalation with IR780 tracer, 2 min exposure
# Method: The spatial distribution of inhaled PK10453 in the lung was evaluated by fluorescent imaging. For this study, a near IR fluorescent tracer, IR-780, was added to the drug solution in the nebulizer. In this way, the dried aerosol particles contained both the drug and IR tracer. After a two minute exposure, animals were placed under general anesthesia underwent intubation via tracheostomy, and the lungs were excised. OCT/PBS was infused via the pulmonary artery, the lung insufflated with air, and the lungs frozen in the vapor phase of liquid nitrogen. Serial approximate 2 mm sections of the lung were made and imaged on a Licor Odyssey Imager.
# [5] = Pharmacokinetic study, IV vs inhalation, lung and plasma; assay type: in vivo, rat; details: for AUC: rat
# Method: PK10453 was administered intravenously or by inhalation to animals, which were then euthanized at time 0, 10, 20, and 60 minutes (n=3 each time point). Blood samples were taken by cardiac puncture, and the lungs excised. The lungs were homogenized and PK10453 extracted with a 1:3 mixture of acetonitrile:methanol. Similarly, plasma was extracted with a 1:3 mixture of acetonitrile:methanol. Drug was assayed by LC MS/MS (PharmOptima Inc., Portage Mich.). First order exponential curves were fit to the data with Excel. The AUC was determined with the trapezoidal method of integration.
# For the pharmacokinetic study, the concentration of PK10453 in lung when administered by inhalation was compared to the concentration achieved with IV administration. As described in Morén “Aerosols in medicine: principles, diagnosis, and therapy.” Amsterdam; New York: Elsevier. xx, 429 (1993) and Phalen et al., “Inhalation exposure methodology.” Environ Health Perspect 56:23-34 (1984)), it is possible to estimate the pharmacokinetic advantage of inhalation relative to intravenous administration, Rd, by comparing the areas under the curve (AUC) of a plot of the drug concentration as a function of time following respiratory and intravenous (IV) administration:
# Rd=[(AUClung/AUCplasma)respiratory]/[(AUClung/AUCplasma)IV]
# [6] = test system: rat MCT model of PAH; experiment: Efficacy study in the rat MCT model; assay type: in vivo
# Method: Efficacy Study in the Rat MCT Model.
# Male Sprague Dawley rats received MCT 60 mg/kg IPMCT, and after 3 weeks, PK10453 or vehicle control were administered by inhalation. Four groups were studied: vehicle control (4 min exposure) and three treatment groups of PK10453 with exposure times 2 minutes (D2), 4 minutes (D4), or 8 minutes (D8) three times a day. These regimens were administered for two weeks. The vehicle consisted of aerosolized IM tosylic acid neutralized with ammonia vapor as described above. The pH of a solution prepared by dissolving captured aerosol particles in water was measured for every dose and was consistently in the range of 5.5-6.0. At the end of the study, the RV systolic pressure (RVSP) was measured, and the heart chambers dissected and weighed.
# [7] = test system: rat MCT+PN model of PAH; experiment: Rat MCT+PN model efficacy: PV loops, RV hypertrophy; assay type: in vivo; details: for HR / EF / ESP / CO / EDP / EDV / ESV / SV / SW: MCT+PN, mean, n=4; for EF / ESP: RV
# Method: In a separate cohort of animals, the MCT+PN model was developed as described above, and PK10453 was then administered for 4 minutes or 8 minutes three times a day to the drug treated group. The vehicle control group underwent 4 minute exposures three times a day. Pressure Volume (PV) loops were obtained with an admittance system (Scisense, Inc.) after 14 days of treatment, while rats were under general anesthesia with isoflurane and 100% FiO2.
# PV loop study. The RV end systolic pressure (ESP) was lower and the RV ejection fraction (EF) was higher in both the D4 and D8 treatment groups compared to vehicle control. Cardiac output in the D8 group was increased compared to the Vehicle group. The study animals underwent left pneumonectomy followed 7 days later by MCT 60 mg/kg IP. Two weeks after MCT administration, PK10453 or vehicle were given by inhalation three times a day for two weeks. PV loops were acquired at the end of this period. With respect to Table 3: V=vehicle; D4=4 minute inhalation PK10453; D8=8 minute inhalation PK10453; n=4 each group; *p<0.001; **p≦0.01; §p<0.05 vs. V.
# [8] = test system: rat MCT+PN model of PAH; experiment: Telemetry study of PA pressure in the rat MCT+PN model; assay type: in vivo
# Method: Efficacy Study in the Rat MCT+PN Model.
# Pneumonectomy and implantation of a TRM53P telemetry monitor in the pulmonary artery (Telemetry Research, New Zealand and ADInstruments, Colorado) was carried out in rats. Two weeks after MCT, PK10453 was administered three times daily for 1 week. Dosing was begun 2 weeks after MCT rather than 3 weeks, because in this more aggressive model the animals developed PAH more quickly and developed distress sooner than in MCT only treated animals (Pulmokine unpublished data). The two groups underwent 4 minute exposures of either the vehicle control or PK10453. Sampling of PA pressure was performed 5 minutes before each morning dose in ambulatory animals in room air (est. pressure 716 mm Hg based on elev. of animal facility).
# [9] = test system: rat MCT+PN model of PAH; experiment: Histology and morphometric analysis of pulmonary arterioles, MCT+PN model; assay type: in vivo
# Excerpt: Histology and Morphometric Analysis.
# At the end of the study, the heart and lungs were removed from ventilated animals under general anesthesia. Heparinized saline was infused under pressure through the main pulmonary artery. The right upper lobe was immediately tied off and placed in liquid nitrogen for Western blot and NanoPro 100 assay analysis. The heart was removed, and the RV free wall, interventricular septum and LV free wall dissected and weighed. Buffered formalin (10%) was infused under pressure both through the pulmonary artery and the trachea. Morphometric analysis was performed on H&E stained formalin fixed tissue sectioned at 8 μm. The media area and lumen area of pulmonary arterioles were measured with Image J software by a technician blinded to treatment group. Measurements were made on 20 pulmonary arterioles per section. The ratio of the lumen area to the total media area was determined. This ratio normalizes the variation in total pulmonary arteriole area.
# [10] = test system: pSTAT3/STAT3; experiment: NanoPro immunoassay of lung extracts, MCT+PN model; assay type: in vivo, rat; details: D4 and D8 groups compared to vehicle
# Method: (§1) NanoPro Immunoassay. Relative differences in phosphorylated ERK1/2 and STAT isoforms were measured with a NanoPro100® immunoassay system (Protein Simple/Cell Biosciences, CA). See Fan et al., “Nanofluidic proteomic assay for serial analysis of oncoprotein activation in clinical specimens.” Nat Med 15:566-571 (2009).
# [11] = test system: phospho-ERK1/2 and total ERK1/2; experiment: NanoPro immunoassay of lung homogenates, MCT+PN model; assay type: in vivo, rat; details: D4 and D8 groups compared to vehicle
# Method: as §1
# [12] = Systemic blood pressure study in ambulatory MCT treated rats; assay type: in vivo, rat; details: inhaled
# Method: Systemic Blood Pressure Study.
# The effect of PK10453 on systemic BP was studied in ambulatory MCT treated rats with DSI PAC40 transmitters implanted in the descending aorta. Three weeks after administration of MCT 60 mg/kg IP, animals inhaled PK10453 or vehicle three times/day with 4 minute exposure each dose for 7 days. Blood pressure was recorded before each morning dose.
# [13] = Body weight, MCT+PN model (FIG. 11); assay type: in vivo, rat; details: treated vs. vehicle groups
# Excerpt: FIG. 11 is a graphic representation of subject body weight in vehicle administered and PK10453 treated subjects, where squares indicate vehicle treated (n=10), triangles indicate PK10453 D4 group (n=10), and diamonds indicate PK10453 D8 group (n=6).
# [14] = Two chamber plethysmography, rat MCT+PN model; assay type: in vivo; details: for TV / MV: MCT+PN, mean
# Method: Plethysmography was performed with an EMKA dual chamber plethysmograph and IOX software. Parameters measured included breathing frequency, tidal volume, minute ventilation, peak inspiratory and expiratory flow, and airway resistance (SRaw). Animals were acclimatized to the plethysmograph for three days prior to first data acquisition. Measurements were made prior to the first dose of drug and at the study's end.
# [15] = test system: PASMCs; details: cited from earlier work
# [16] = test system: rat MCT model of PAH; details: cited from earlier work
# [17] = test system: patients with PAH; details: cited from earlier work
# [18] = test system: phospho-ERK1/2; details: rat MCT model; cited from earlier work
smiles,measurement,setting,value
"COc1cc(-c2cncc(N[C@@H](C)c3cccc(NC(=O)c4cncc(C)c4)c3)n2)ccc1O [PK10453, (S)—N-(3-(1-((6-(4-hydroxy-3-methoxyphenyl)pyrazin-2yl)amino)ethyl)phenyl)-5-methylnicotinamide]",IC50,[1],0.021 µM
same,IC50,[2],0.015 µM
same,IC50,[3],< 0.5 µM
same,fluorescence intensity distribution in lung sections,[4],well distributed throughout the lungs
same,A of Y = AEXP(-bX),[5]; Lung (INH),2498 ng/g lung
same,b of Y = AEXP(-bX),[5]; Lung (INH),0.03 min⁻¹
same,A of Y = AEXP(-bX),[5]; Lung (IV),440 ng/g lung
same,b of Y = AEXP(-bX),[5]; Lung (IV),0.06 min⁻¹
same,A of Y = AEXP(-bX),[5]; Plasma (INH),132.7 ng/g lung
same,b of Y = AEXP(-bX),[5]; Plasma (INH),0.07 min⁻¹
same,A of Y = AEXP(-bX),[5]; Plasma (IV),1260 ng/g lung
same,b of Y = AEXP(-bX),[5]; Plasma (IV),0.07 min⁻¹
same,"Rd, pharmacokinetic advantage of inhalation relative to IV",[5]; [(AUClung/AUCplasma)respiratory]/[(AUClung/AUCplasma)IV],44.6 fold and 45 fold and 44.58 fold
same,AUC,"[5]; inhaled, Plasma (INH)",0.0655 µg·h/mL
same,AUC,[5]; Plasma (IV),0.617 µg·h/mL
same,RVSP,"[6]; D2, 2 min inhalation three times a day, two weeks",51.4±6.5 mm Hg
same,reduction in RVSP compared to vehicle,[6]; D4,44%
same,RVSP,"[6]; D4, 4 min inhalation three times a day, two weeks",44.4±3.8 mm Hg
same,reduction in RVSP compared to vehicle,[6]; D8,54%
same,RVSP,"[6]; D8, 8 min inhalation three times a day, two weeks",37.1±4.5 mm Hg
same,decrease of RV systolic pressure,"[6]; inhaled, dose group not stated",50%
same,"RV hypertrophy, ratio (RV+IVS)/LV weight","[6]; inhaled, two weeks",significant reduction
same,RVSP,[7]; D4 MCT+PN group (n=4),43.2±6.1 mm Hg
same,RVSP,[7]; D8 MCT+PN group (n=4),38.4±1.4 mm Hg
same,HR,"[7]; D4, 4 minute inhalation 3x/day, two weeks",288 bpm
same,EF,[7]; D4,65.4**
same,ESP,[7]; D4,43.20* mm Hg
same,CO,[7]; D4,77.59 mL/min
same,EDP,[7]; D4,2.62§ mm Hg
same,EDV,[7]; D4,408.95 µL
same,ESV,[7]; D4,144.14 µL
same,SV,[7]; D4,264.81 µL
same,SW,[7]; D4,9818
same,HR,"[7]; D8, 8 minute inhalation 3x/day, two weeks",315 bpm
same,EF,[7]; D8,67.1**
same,ESP,[7]; D8,38.44* mm Hg
same,CO,[7]; D8,105.1** ml/min
same,EDP,[7]; D8,4.87 mm Hg
same,EDV,[7]; D8,488.68 µL
same,ESV,[7]; D8,155.40 µL
same,SV,[7]; D8,333.28** μl
same,SW,[7]; D8,5481
same,RV hypertrophy,"[7]; rat MCT+PN, inhaled, two weeks",significant decrease
same,PA systolic pressure,"[8]; 4 min exposure 3x/day, after five days of treatment",47.3±3.0 mm Hg
same,PA systolic pressure,"[8]; 4 min exposure 3x/day, treatment day 8",47.3±4.9 mm Hg
same,PA systolic pressure,[8]; day 0 prior to start of treatment,43.1±3.5 mm Hg
same,lumen area to media area ratio (L/M),[9]; D4,0.75±0.14
same,lumen area to media area ratio (L/M),[9]; D8,1.17±0.07
same,pSTAT3/STAT3 ratio,[10],significant reduction
same,pERK1/ERK1,[11],significant reductions
same,ppERK1/ERK1,[11],significant reductions
same,effect on systemic blood pressure,[12],did not have an adverse effect; also recorded: no significant effect
same,body weight,[13],trend to a slower rate of decline
same,TV,"[14]; D4, Day1, prior to first dose",1.00 mL
same,MV,"[14]; D4, Day15",176.12§ ml/min
same,TV,"[14]; D4, Day15",0.85 mL
same,TV,"[14]; D8, Day1, prior to first dose",0.74 mL
same,MV,"[14]; D8, Day15",128.49 mL/min
same,TV,"[14]; D8, Day15",0.63 mL
same,effect on lung function,"[14]; inhaled, 2 wk administration course",did not appear to adversely affect; also recorded: no adverse effect
Cc1ccc(NC(=O)c2ccc(CN3CCN(C)CC3)cc2)cc1Nc1nccc(-c2cccnc2)n1 [imatinib],migration of PASMCs,[15],inhibited
same,RVSP,[16],decreased
same,survival,[16],improved
same,primary efficacy parameter (6MWD) compared with placebo,"[17]; 6 month period, US 2011/0190313",did not improve
same,6-min walk distance,"[17]; IMPRES trial, patients with severe PAH",improvement
same,phospho-ERK1/2,[18],reduction
